Experimental data published in patent publication US20040171073A1, “Compounds for modulation of cholesterol transport” (Massachusetts Institute of Technology, priority 2002, published 2004).

molecular target: T1, murine SR-BI (Mus musculus, UniProt Q61009); assay: Uptake of DiI from DiI-HDL by ldlA[mSR-BI] cells (high throughput screen and concentration dependence); assay type: cell-based; conditions: Test 1
T1 construct: expressed in transfected cells; host or cells: ldlA-7 (LDL receptor deficient Chinese hamster ovary cells)
T1 sequence (Q61009 1-509): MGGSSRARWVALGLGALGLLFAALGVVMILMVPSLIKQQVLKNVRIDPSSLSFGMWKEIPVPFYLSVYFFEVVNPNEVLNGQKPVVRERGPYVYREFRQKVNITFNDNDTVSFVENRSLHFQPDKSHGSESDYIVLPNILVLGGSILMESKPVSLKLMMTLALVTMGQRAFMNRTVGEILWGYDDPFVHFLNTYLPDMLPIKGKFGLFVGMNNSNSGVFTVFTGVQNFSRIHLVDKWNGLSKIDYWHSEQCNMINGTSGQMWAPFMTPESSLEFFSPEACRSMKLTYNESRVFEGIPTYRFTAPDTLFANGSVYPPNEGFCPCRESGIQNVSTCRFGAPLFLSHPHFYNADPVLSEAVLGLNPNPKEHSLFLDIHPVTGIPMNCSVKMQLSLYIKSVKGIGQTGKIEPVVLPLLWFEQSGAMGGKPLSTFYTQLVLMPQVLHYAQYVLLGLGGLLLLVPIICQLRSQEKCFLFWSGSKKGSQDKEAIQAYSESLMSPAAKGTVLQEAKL

Compound	ENDOHDL Test 1
O=[N+]([O-])c1cccc(/C=N\Nc2nc(Nc3ccc(Cl)cc3)nc(N3CCOCC3)n2)c1 [MIT 9952-209]	0.46
Cc1c([N+](=O)[O-])cc(C(=O)Nc2cccc(-c3nc4ccccc4o3)c2)cc1[N+](=O)[O-] [MIT 9952-210]	0.59
CCn1c2ccccc2c2cc(/C=N/NC(N)=S)ccc21 [MIT 9952-211]	0.59
COc1ccc2c(c1)c(C(C)=O)c(C)n2-c1ccccc1 [MIT 9952-212]	0.57
O=C(Nc1cccc(NC(=O)c2ccccc2Cl)c1)c1cccc([N+](=O)[O-])c1 [MIT 9952-213]	0.66
CC(C)(C)c1ccc(C(=O)Nc2cccc(NC(=O)c3cccc([N+](=O)[O-])c3)c2)cc1 [MIT 9952-214]	0.63
CCOC(=O)c1c(NC(=O)c2ccccc2)sc(NC(=O)c2ccccc2)c1C(=O)OCC [MIT 9952-215]	0.57
O=C(NC(NC(=S)Nc1ccc2ccccc2c1)C(Cl)(Cl)Cl)c1cccc([N+](=O)[O-])c1 (centres unmarked) [MIT 9952-216]	0.54
O=C(NNC(=O)c1cccc2ccccc12)c1ccc(NC(=O)c2cccc3ccccc23)cc1 [MIT 9952-217]	0.57
Cc1cc(=O)oc2cc(OCc3ccccc3)c(OCc3ccccc3)cc12 [MIT 9952-218]	0.64
O=C(Nc1ccc(Cl)c([N+](=O)[O-])c1)c1cccc(C(=O)Nc2ccc(Cl)c([N+](=O)[O-])c2)c1 [MIT 9952-219]	0.55
CCS(=O)(=O)C(=C(Nc1ccc(OC)cc1)Nc1ccc(OC)cc1)S(=O)(=O)CC [MIT 9952-220]	1.13
Nc1c(C(=O)c2ccc(Br)cc2)sc2nc(-c3ccccc3)c3c(c12)CCCC3 [MIT 9952-221]	0.62
CCOC(=O)c1c(NC(=O)c2ccccc2C)sc2c1CCCC2 [MIT 9952-223]	0.64
Cc1ccc(NC(=O)c2ccc([N+](=O)[O-])c(C)c2)cc1Cl [MIT 9952-224]	0.6
C/C(CCS(=O)(=O)c1ccc(C)cc1)=N\NC(N)=S [MIT 9952-225]	0.56
COc1ccc(NC(=O)c2cc([N+](=O)[O-])c(C)c([N+](=O)[O-])c2)cc1Cl [MIT 9952-226]	0.5
C=CCc1c(C)nc(-c2ccccc2)nc1Nc1ccc([N+](=O)[O-])cc1 [MIT 9952-227]	0.58
Cc1ccsc1/C=N/NC(=O)c1cccc([N+](=O)[O-])c1 [MIT 9952-228]	0.46
O=C(Nc1ccc2c(c1)S(=O)(=O)c1cc(NC(=O)c3cccc4ccccc34)ccc1-2)c1cccc2ccccc12 [MIT 9952-229]	0.58
Nc1cc2cccnc2c2ncccc12 [MIT 9952-230]	0.61
O=C(Nc1cc(Sc2nc3ccccc3s2)cc([N+](=O)[O-])c1)c1ccc(F)c(F)c1 [MIT 9952-231]	0.46
O=C(Nc1nc(-c2ccccc2)cs1)Nc1ccc(Cl)cc1Cl [MIT 9952-232]	0.61
COc1ccc(OC)c(NC(=O)c2cc([N+](=O)[O-])c(C)c([N+](=O)[O-])c2)c1 [MIT 9952-233]	0.59
O=C(Nc1ccc(-c2nc3cc(NC(=O)c4ccccc4[N+](=O)[O-])ccc3o2)cc1)c1ccccc1[N+](=O)[O-] [MIT 9952-234]	0.58

same assay, conditions: Test 2

Compound	ENDOHDL Test 2
O=[N+]([O-])c1cccc(/C=N\Nc2nc(Nc3ccc(Cl)cc3)nc(N3CCOCC3)n2)c1 [MIT 9952-209]	0.59
Cc1c([N+](=O)[O-])cc(C(=O)Nc2cccc(-c3nc4ccccc4o3)c2)cc1[N+](=O)[O-] [MIT 9952-210]	0.56
CCn1c2ccccc2c2cc(/C=N/NC(N)=S)ccc21 [MIT 9952-211]	0.56
COc1ccc2c(c1)c(C(C)=O)c(C)n2-c1ccccc1 [MIT 9952-212]	0.49
O=C(Nc1cccc(NC(=O)c2ccccc2Cl)c1)c1cccc([N+](=O)[O-])c1 [MIT 9952-213]	0.57
CC(C)(C)c1ccc(C(=O)Nc2cccc(NC(=O)c3cccc([N+](=O)[O-])c3)c2)cc1 [MIT 9952-214]	0.35
CCOC(=O)c1c(NC(=O)c2ccccc2)sc(NC(=O)c2ccccc2)c1C(=O)OCC [MIT 9952-215]	0.53
O=C(NC(NC(=S)Nc1ccc2ccccc2c1)C(Cl)(Cl)Cl)c1cccc([N+](=O)[O-])c1 (centres unmarked) [MIT 9952-216]	0.58
O=C(NNC(=O)c1cccc2ccccc12)c1ccc(NC(=O)c2cccc3ccccc23)cc1 [MIT 9952-217]	0.53
Cc1cc(=O)oc2cc(OCc3ccccc3)c(OCc3ccccc3)cc12 [MIT 9952-218]	0.33
O=C(Nc1ccc(Cl)c([N+](=O)[O-])c1)c1cccc(C(=O)Nc2ccc(Cl)c([N+](=O)[O-])c2)c1 [MIT 9952-219]	0.55
CCS(=O)(=O)C(=C(Nc1ccc(OC)cc1)Nc1ccc(OC)cc1)S(=O)(=O)CC [MIT 9952-220]	1.25
Nc1c(C(=O)c2ccc(Br)cc2)sc2nc(-c3ccccc3)c3c(c12)CCCC3 [MIT 9952-221]	0.59
CCOC(=O)c1c(NC(=O)c2ccccc2C)sc2c1CCCC2 [MIT 9952-223]	0.57
Cc1ccc(NC(=O)c2ccc([N+](=O)[O-])c(C)c2)cc1Cl [MIT 9952-224]	0.5
C/C(CCS(=O)(=O)c1ccc(C)cc1)=N\NC(N)=S [MIT 9952-225]	0.59
COc1ccc(NC(=O)c2cc([N+](=O)[O-])c(C)c([N+](=O)[O-])c2)cc1Cl [MIT 9952-226]	0.56
C=CCc1c(C)nc(-c2ccccc2)nc1Nc1ccc([N+](=O)[O-])cc1 [MIT 9952-227]	0.53
Cc1ccsc1/C=N/NC(=O)c1cccc([N+](=O)[O-])c1 [MIT 9952-228]	0.63
O=C(Nc1ccc2c(c1)S(=O)(=O)c1cc(NC(=O)c3cccc4ccccc34)ccc1-2)c1cccc2ccccc12 [MIT 9952-229]	0.58
Nc1cc2cccnc2c2ncccc12 [MIT 9952-230]	0.51
O=C(Nc1cc(Sc2nc3ccccc3s2)cc([N+](=O)[O-])c1)c1ccc(F)c(F)c1 [MIT 9952-231]	0.54
O=C(Nc1nc(-c2ccccc2)cs1)Nc1ccc(Cl)cc1Cl [MIT 9952-232]	0.56
COc1ccc(OC)c(NC(=O)c2cc([N+](=O)[O-])c(C)c([N+](=O)[O-])c2)c1 [MIT 9952-233]	0.33
O=C(Nc1ccc(-c2nc3cc(NC(=O)c4ccccc4[N+](=O)[O-])ccc3o2)cc1)c1ccccc1[N+](=O)[O-] [MIT 9952-234]	0.54
